Laboratory results reported in patent US7750158B2, “Cannabinoid receptor ligands” (Schering Corporation, priority 2004, dated 2010).
Read-outs that look alike come from different tables or passages of the source.

How the values were obtained:
[1] = target: T1, recombinant human cannabinoid CB2 receptor (Homo sapiens, UniProt P34972); assay: [3H] CP-55,940 competition binding to recombinant cannabinoid receptor membranes (CB2)
T1 construct: purchased Receptor Biology RB-HCB2
Procedure: (§1) Potential cannabinoid receptor ligands were screened for the ability to compete with [^3H] CP-55,940, which is a known receptor ligand, for binding to recombinant cannabinoid receptors. Test compounds were serially diluted in Diluent Buffer (50 mM Tris pH 7.1, 1 mM EDTA, 3 mM MgCl2, 0.1% BSA, 10% DMSO, 0.36% methyl cellulose (Sigma M-6385)) from stocks prepared in 100% DMSO. Aliquots (10 μL) were transferred into 96-well microtiter plates. Membrane preparations of recombinant human cannabinoid CB2 receptor (Receptor Biology #RB-HCB2) or recombinant human cannabinoid CB1 receptor (Receptor Biology #RB-HCB1) were diluted to 0.3 mg/mL in Binding Buffer (50 mM Tris pH 7.2, 1 mM EDTA, 3 mM MgCl2, 0.1% BSA). Aliquots (50 μL) were added to each well of the microtiter plate. The binding reactions were initiated by addition of [^3H] CP-55,940 (New England Nuclear #NET 1051; specific activity=180 Ci/mmol) to each well of the microtiter plate. Each 100 μl reaction mixture contained 0.48 nM [^3H] CP-55,940, 15 μg membrane protein in binding buffer containing 1% DMSO and 0.036% methyl cellulose. Following incubation for 2 hours at room temperature, the reactions were filtered through 0.5% polyethylenimine-coated GF/C filter plates (UniFilter-96, Packard) with a TomTec Mark 3U Harvester (Hamden, Conn.). The filter plate was washed 5 times with binding buffer, rotated 180°, then re-washed 5 times with binding buffer. Bound radioactivity was quantitated following addition of 30 μl of Packard Microscint 20 scintillant in a Packard TopCount NXT microplate scintillation counter. Non-linear regression analysis of the resulting data was performed using Prism 2.0b (GraphPad, San Diego, Calif.).
The activities (potencies) for the compounds of the invention are determined by measuring their Ki values.

[2] = target: T2, recombinant human cannabinoid CB1 receptor (Homo sapiens, UniProt P21554); assay: [3H] CP-55,940 competition binding to recombinant cannabinoid receptor membranes (CB1), reported as the CB1/CB2 selection ratio; conditions: Ki CB1 / Ki CB2, same binding assay
T2 construct: purchased Receptor Biology RB-HCB1
T2 sequence (P21554 whole entry): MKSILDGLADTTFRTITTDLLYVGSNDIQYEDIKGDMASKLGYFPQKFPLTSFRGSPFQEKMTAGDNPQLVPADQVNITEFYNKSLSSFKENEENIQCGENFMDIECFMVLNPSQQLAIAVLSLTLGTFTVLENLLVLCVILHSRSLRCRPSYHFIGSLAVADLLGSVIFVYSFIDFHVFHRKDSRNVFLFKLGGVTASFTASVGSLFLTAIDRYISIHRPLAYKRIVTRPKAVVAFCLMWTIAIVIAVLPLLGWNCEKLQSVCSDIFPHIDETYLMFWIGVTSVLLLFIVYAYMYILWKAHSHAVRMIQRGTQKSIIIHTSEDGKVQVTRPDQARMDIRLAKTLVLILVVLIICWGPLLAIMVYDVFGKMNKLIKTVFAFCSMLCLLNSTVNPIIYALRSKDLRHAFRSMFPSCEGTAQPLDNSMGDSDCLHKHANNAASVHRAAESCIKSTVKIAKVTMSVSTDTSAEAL
Procedure: as §1

[3] = 0.48 nM [3H] CP-55,940, 15 μg membrane protein, 2 hours at room temperature, read-out: Ki values (CB2 receptor)

T1 sequence (P34972 whole entry): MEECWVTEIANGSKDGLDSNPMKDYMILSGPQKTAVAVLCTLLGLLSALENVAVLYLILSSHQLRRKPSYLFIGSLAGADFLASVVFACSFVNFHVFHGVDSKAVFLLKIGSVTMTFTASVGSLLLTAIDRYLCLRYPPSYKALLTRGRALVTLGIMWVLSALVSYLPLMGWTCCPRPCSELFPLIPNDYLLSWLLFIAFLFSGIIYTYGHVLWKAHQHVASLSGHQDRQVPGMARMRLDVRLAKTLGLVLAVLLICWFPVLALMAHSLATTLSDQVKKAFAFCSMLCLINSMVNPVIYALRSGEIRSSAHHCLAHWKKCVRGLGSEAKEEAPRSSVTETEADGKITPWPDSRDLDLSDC

| SMILES | Ki [1, 3] [nM] | selection ratio of the Ki value of the CB1 receptor to that of the CB2 receptor [2] | Ki [1] [nM] |
| --- | --- | --- | --- |
| CS(=O)(=O)NCC1C2CN(S(=O)(=O)c3ccc(Cl)cc3S(=O)(=O)c3ccccc3F)CC12 (stereo not shown) [compound 9] | 0.65 | ~2700 |  |
| CCC1(CNCC(F)(F)F)CC2CCC(C1)N2S(=O)(=O)c1ccc(Cl)cc1S(=O)(=O)c1ccccn1 (stereo not shown) [compound 58] |  | ~770 | 41 |
| CC(C)n1c(S(=O)(=O)N2CC3C(CNC(=O)OC(C)(C)C)C3C2)c(S(=O)(=O)c2ccccc2F)c2ccccc21 (stereo not shown) [compound 62] |  | ~1.9 | 28 |
| O=S(=O)(c1cc2ccccc2n1S(=O)(=O)c1ccccc1F)N1CCC2(CC1)C[C@@H]2NS(=O)(=O)C(F)(F)F [compound 22] | 1 | ~400 |  |
| O=S(=O)(c1cc2cccnc2n1S(=O)(=O)c1ccccc1F)N1CC2C(CNS(=O)(=O)C(F)(F)F)C2C1 (stereo not shown) [compound 60] | 3.3 | ~4100 |  |
| CCC1(CNS(=O)(=O)C(F)(F)F)CC2CCC(C1)N2S(=O)(=O)c1ccc(Cl)cc1S(=O)(=O)c1ccccn1 (stereo not shown) [compound 59] |  | ~52 | 25.9 |
| O=S(=O)(c1ccccn1)c1cc(C(F)(F)F)ccc1S(=O)(=O)N1CCC2(CC1)CC2NS(=O)(=O)C(F)(F)F (stereo not shown) [compound 31] |  | ~71 | 5 |
| CS(=O)(=O)NCC1CC2CCC(C1)N2S(=O)(=O)c1cc2ccccc2n1S(=O)(=O)c1ccccc1F (stereo not shown) [compound 47] |  | ~790 | 7 |
| O=S(=O)(c1ccccn1)c1cc(Cl)ccc1S(=O)(=O)N1CC2C(CNS(=O)(=O)C(F)(F)F)C2C1 (stereo not shown) [compound 6] | 1.5 | ~6300 |  |
| O=S(=O)(c1ccccc1F)c1cc(Cl)ccc1S(=O)(=O)N1CC2C(CNS(=O)(=O)C(F)(F)F)C2C1 (stereo not shown) [compound 11] | 1.46 | about 1000 |  |
| O=S(=O)(c1cc2ccccc2n1S(=O)(=O)c1ccccn1)N1CCC2(CC1)CC2NS(=O)(=O)C(F)(F)F (stereo not shown) [compound 41] | 0.4 | ~3500 |  |
| CS(=O)(=O)NC1CC12CCN(S(=O)(=O)c1cc3ccccc3n1S(=O)(=O)c1ccccc1F)CC2 (racemic) [compound 20] | 0.24 | about 15000 |  |
| CS(=O)(=O)NCC1C2CN(S(=O)(=O)c3cc4ccccc4n3S(=O)(=O)c3ccccc3F)CC12 (stereo not shown) [compound 13] | 1 | ~3400 |  |
| Cn1c(S(=O)(=O)N2CCC3(CC2)CC3NS(=O)(=O)C(F)(F)F)c(S(=O)(=O)c2ccccc2F)c2ccccc21 (stereo not shown) [compound 61] |  | ~1200 | 3.9 |
